Data reported in patent US8039500B2, “Fused heterocyclic compounds” (Takeda Pharmaceutical Company Limited, priority 2006, dated 2011).

Molecular target: T1, human CRF receptor (Homo sapiens, UniProt P34998)
T1 construct: expressed in transfected cells; host or cells: CHO cells (membrane fraction)
T1 sequence (P34998 24-415): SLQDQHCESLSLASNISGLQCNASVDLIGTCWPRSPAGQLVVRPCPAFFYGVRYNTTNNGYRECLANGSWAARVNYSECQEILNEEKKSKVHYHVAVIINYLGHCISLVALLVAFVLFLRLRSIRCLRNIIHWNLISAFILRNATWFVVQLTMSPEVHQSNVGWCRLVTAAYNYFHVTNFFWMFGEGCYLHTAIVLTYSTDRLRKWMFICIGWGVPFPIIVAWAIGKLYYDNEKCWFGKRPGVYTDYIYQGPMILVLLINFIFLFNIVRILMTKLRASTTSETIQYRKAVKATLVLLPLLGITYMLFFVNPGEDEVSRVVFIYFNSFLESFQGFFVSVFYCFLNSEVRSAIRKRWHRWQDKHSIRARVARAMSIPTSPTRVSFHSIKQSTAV
Experiment: CRF binding inhibitory rate / receptor binding experiment with 125I-CRF
Conditions: human CRF receptor expressing CHO cellular membrane fraction, 50 pM 125I-CRF (ovine CRF), room temperature 1.5 hr, 0.05 nM to 10 μM of compound; read-out: IC50 values (CRF binding inhibition)
Procedure: Measurement of CRF Binding Inhibitory Rate
A receptor binding experiment was carried out using a human CRF receptor expressing CHO cellular membrane fraction and ovine CRF, [^125I]-tyr^0(^125I-CRF). 1000 nM of a test compound was incubated with 1 μg of human CRF receptor expressing CHO cellular membrane fraction and 50 pM of ^125I-CRF in a binding assay buffer (50 mM Tris-HCl, 5 mM EDTA, 10 mM MgCl2, 0.05% CHAPS, 0.1% BSA, 0.5 mM PMSF, 0.1 μg/mL pepstatin, 20 μg/mL leupeptin, pH 7.5). In addition, for measuring nonspecific binding (NSB), 0.1 μM unlabelled human Urocortin was incubated with 5 μg of human CRF receptor expressing CHO cellular membrane fraction and 50 pM of ^125I-CRF in a binding assay buffer. After a binding reaction was carried out at room temperature for 1.5 hr, the membrane was entrapped on a glass filter (UniFilter plate GF-C/Perkin Elmer) by suction filtration using a cell harvester (Perkin Elmer), and washed with ice-cooled 50 mM Tris-HCl (pH 7.5). After drying the glass filter, a liquid scintillation cocktail (Microscinti 0, Perkin Elmer) was added, and the radioactivity of ^125I-CRF remaining on a glass filter was measured using Topcount (Perkin Elmer).
(TB-SB)/(TB-NSB)×100 (SB: radioactivity when a compound is added, TB: maximum binding radioactivity, NSB: nonspecific binding radioactivity) were calculated to obtain binding inhibitory rates under the range of the presence from 0.05 nM to 10 μM of each compound. The IC50 values were calculated by using GraphPad Prism software.

SMILES	IC50 [µM]
CC=C(CC)c1cccc2nc(Cc3c(C)cc(C)cc3C)n(C)c12 (mixture of isomers) [Example 4, 7-[1-Ethylprop-1-en-1-yl]-2-(mesitylmethyl)-1-methyl-1H-benzimidazole]	< 1
CCC(c1cccc2nc(Cc3c(Cl)cc(C(F)(F)F)cc3Cl)n(C)c12)C(C)OC(C)=O (mixture of isomers) [Example 8, 2-{2-[2,6-Dichloro-4-(trifluoromethyl)benzyl]-1-methyl-1H-benzimidazol-7-yl}-1-methylbutyl acetate]	< 1
CCN(CC)c1cccc2nc(Cc3c(C)cc(C)cc3C)n(C)c12 [Example 1, N,N-Diethyl-2-(mesitylmethyl)-1-methyl-1H-benzimidazol-7-amine]	< 1
CCN(CC)c1cccc2nc(Cc3c(Cl)cc(C(F)(F)F)cc3Cl)n(C)c12 [Example 2, 2-[2,6-Dichloro-4-(trifluoromethyl)benzyl]-N,N-diethyl-1-methyl-1H-benzimidazol-7-amine]	< 1
CCC(O)(CC)c1cccc2nc(Cc3c(C)cc(C)cc3C)n(C)c12 [Example 3, 3-[2-(Mesitylmethyl)-1-methyl-1H-benzimidazol-7-yl]pentan-3-ol]	< 1
CCC(CC)c1cccc2nc(Cc3c(C)cc(C)cc3C)n(C)c12 [Example 5, 7-(1-Ethylpropyl)-2-(mesitylmethyl)-1-methyl-1H-benzimidazole]	< 1
CCC(O)(CC)c1cccc2nc(Cc3c(Cl)cc(C(F)(F)F)cc3Cl)n(C)c12 [Example 6, 3-{2-[2,6-Dichloro-4-(trifluoromethyl)benzyl]-1-methyl-1H-benzimidazol-7-yl}pentan-3-ol]	< 1
CC=C(CC)c1cccc2nc(Cc3c(Cl)cc(C(F)(F)F)cc3Cl)n(C)c12 [Example 7, 2-[2,6-Dichloro-4-(trifluoromethyl)benzyl]-7-[1-ethylprop-1-en-1-yl]-1-methyl-1H-benzimidazole]	< 1
CCC(c1cccc2nc(Cc3c(Cl)cc(C(F)(F)F)cc3Cl)n(C)c12)C(C)O (stereo not drawn) [Example 9, 3-{2-[2,6-Dichloro-4-(trifluoromethyl)benzyl]-1-methyl-1H-benzimidazol-7-yl}pentan-2-ol]	< 1
CCC(CC)c1cccc2nc(C(O)c3c(C)cc(C)cc3C)n(C)c12 (stereo not drawn) [Example 10, [7-(1-Ethylpropyl)-1-methyl-1H-benzimidazol-2-yl](mesityl)methanol]	< 1

System: not given
Experiment: not given
Conditions: not given

SMILES	melting point [°C]
CCN(CC)c1cccc2nc(Cc3c(Cl)cc(C(F)(F)F)cc3Cl)n(C)c12 [Example 2, 2-[2,6-Dichloro-4-(trifluoromethyl)benzyl]-N,N-diethyl-1-methyl-1H-benzimidazol-7-amine]	150 to 151
CCC(CC)c1cccc2nc(C(O)c3c(C)cc(C)cc3C)n(C)c12 (stereo not drawn) [Example 10, [7-(1-Ethylpropyl)-1-methyl-1H-benzimidazol-2-yl](mesityl)methanol]	132 to 134
